What follows are compounds tested against human PDE10A2 (Homo sapiens (Human), UniProt Q9Y233) (assay: PDE10 fluorescence polarization (IMAP FP) inhibition assay). Conditions: apparent inhibition constant, FAM-labeled cAMP substrate 50 nM, room temperature.
Sequence of human PDE10A2 (Q9Y233 267-1055): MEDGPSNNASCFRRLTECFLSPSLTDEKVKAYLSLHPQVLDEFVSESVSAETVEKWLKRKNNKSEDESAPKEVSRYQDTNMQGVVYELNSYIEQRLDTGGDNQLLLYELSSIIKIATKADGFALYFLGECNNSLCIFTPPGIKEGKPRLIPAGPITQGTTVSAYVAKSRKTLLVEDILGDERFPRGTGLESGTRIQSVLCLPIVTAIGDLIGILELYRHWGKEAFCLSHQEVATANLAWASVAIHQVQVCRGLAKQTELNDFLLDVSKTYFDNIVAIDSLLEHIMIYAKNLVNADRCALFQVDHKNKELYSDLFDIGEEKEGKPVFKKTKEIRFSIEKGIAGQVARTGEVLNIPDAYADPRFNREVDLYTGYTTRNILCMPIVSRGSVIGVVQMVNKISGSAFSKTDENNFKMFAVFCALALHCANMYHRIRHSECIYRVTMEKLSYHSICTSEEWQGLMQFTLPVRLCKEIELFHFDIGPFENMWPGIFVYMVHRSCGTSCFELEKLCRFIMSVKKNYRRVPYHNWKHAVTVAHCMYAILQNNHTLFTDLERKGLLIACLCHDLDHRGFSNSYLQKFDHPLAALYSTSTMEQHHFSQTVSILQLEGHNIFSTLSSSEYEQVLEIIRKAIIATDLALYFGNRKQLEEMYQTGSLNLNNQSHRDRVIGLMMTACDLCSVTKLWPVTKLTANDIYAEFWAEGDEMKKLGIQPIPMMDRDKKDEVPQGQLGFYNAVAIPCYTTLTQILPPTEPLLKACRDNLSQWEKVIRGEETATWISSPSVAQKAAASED
Type: biochemical
Description: The activity of the compounds in accordance with the present invention as PDE10 inhibitors may be readily determined without undue experimentation using a fluorescence polarization (FP) methodology that is well known in the art (Huang, W., et al., J. Biomol Screen, 2002, 7: 215).
In a typical experiment the PDE10 inhibitory activity of the compounds of the present invention was determined in accordance with the following experimental method. PDE10A2 was amplified from human fetal brain cDNA (Clontech, Mountain View, Calif.) using a forward primer corresponding to nucleotides 56-77 of human PDE10A2 (Accession No. AF127480, Genbank Identifier 4894716), containing a Kozak consensus sequence, and a reverse primer corresponding to nucleotides 2406-2413 of human PDE10A2 (Accession No. AF127480, Genbank Identifier 4894716). Amplification with Easy-A polymerase (Stratagene, La Jolla, Calif.) was 95° C. for 2 minutes followed by thirty three cycles of 95° C. for 40 seconds, 55° C. for 30 seconds, and 72° C. for 2 minutes 48 seconds. Final extension was 72° C. for 7 minutes. The PCR product was TA cloned into pcDNA3.2-TOPO (Invitrogen, Carlsbad, Calif.) according to standard protocol. AD293 cells with 70-80% confluency were transiently transfected with human PDE10A2/pcDNA3.2-TOPO using Lipofectamine 2000 according to manufacturer specifications (Invitrogen, Carlsbad, Calif.). Cells were harvested 48 hours post-transfection and lysed by sonication (setting 3, 10×5 sec pulses) in a buffer containing 20 mM HEPES, 1 mM EDTA and protease inhibitor cocktail (Roche). Lysate was collected by centrifugation at 75,000×g for 20 minutes. Supernatant containing the cytoplasmic fraction was used for evaluation of PDE10A2 activity. The fluorescence polarization assay for cyclic nucleotide phosphodiesterases was performed using an IMAP® FP kit supplied by Molecular Devices, Sunnyvale, Calif. (product # R8139). IMAP® technology has been applied previously to phosphodiesterase assays (Huang, W., et al., J. Biomol Screen, 2002, 7: 215). Assays were performed at room temperature in 384-well microtiter plates with an incubation volume of 20.2 μL. Solutions of test compounds were prepared in DMSO and serially diluted with DMSO to yield 8 μL of each of 10 solutions differing by 3-fold in concentration, at 32 serial dilutions per plate. 100% inhibition is determined using a known PDE10 inhibitor, which can be any compound that is present at 5,000 times its Ki value in the assay described as follows, such as papaverine (see Siuciak, et al. Neuropharmacology (2006) 51:386-396; Becker, et al. Behav Brain Res (2008) 186(2):155-60; Threlfell, et al., J Pharmacol Exp Ther (2009) 328(3):785-795), 2-{4-[pyridin-4-yl-1-(2,2,2-trifluoroethyl)-1H-pyrazol-3-yl]phenoxymethyl}quinoline succinic acid or 2-[4-(1-methyl-4-pyridin-4-yl-1H-pyrazol-3-yl)-phenoxymethyl]quinoline succinic acid (see Schmidt, et al. J Pharmacol Exp Ther (2008) 325:681-690; Threlfell, et al., J Pharmacol Exp Ther (2009) 328(3): 785-795). 0% of inhibition is determined by using DMSO (1% final concentrations). A Labcyte Echo 555 (Labcyte, Sunnyvale, Calif.) is used to dispense […] from each well of the titration plate to the 384 well assay plate. A solution of enzyme (1/7000 dilution from aliquots; sufficient to produce 20% substrate conversion) and a separate solution of FAM-labeled cAMP PDE from Molecular Devices (product # R7506), at a final concentration of 50 nM are made in the assay buffer (10 mM Tris HCl, pH 7.2, 10 mM MgCl2, 0.05% NaN3 0.01% Tween-20, and 1 mM DTT). The enzyme is added to the assay plates by the addition of 10 μL of enzyme solution to each well, shaken to mix and incubated at room temperature for 60 minutes. The substrate is then added to the assay plates by the addition of 10 μL of substrate solution to each well, shaken to mix, and incubated at room temperature for 60 minutes. […]
With `Cc1nc(N2CC(c3nc4ccccc4n3C)C2)cc(-n2nc(C(F)(F)F)nc2C)n1` [Example 21, 1-methyl-2-(1-(2-methyl-6-(5-methyl-3-(trifluoromethyl)-1H-1,2,4-triazol-1-yl)pyrimidin-4-yl)azetidin-3-yl)-1H-benzo[d]imidazole] the Ki was 7 nM.
`Cc1nc(C)n(-c2cc(N3CC(c4nc5ccccc5n4C)C3)nc(-n3ccnc3C)n2)n1` [Example 77, 2-(1-(6-(3,5-dimethyl-1H-1,2,4-triazol-1-yl)-2-(2-methyl-1H-imidazol-1-yl)pyrimidin-4-yl)azetidin-3-yl)-1-methyl-1H-benzo[d]imidazole] showed a Ki of 0.26 nM.
With `Cc1ccc(-c2cc(N3CC(c4nc5ccccc5n4C)C3)nc(C)n2)nc1` [Example 94, 1-methyl-2-(1-(2-methyl-6-(5-methylpyridin-2-yl)pyrimidin-4-yl)azetidin-3-yl)-1H-benzo[d]imidazole] the Ki was 1 nM.
In the case of `Cc1nc(-c2nccs2)cc(N2CC(c3nc4ccccc4n3C)C2)n1` [Example 105, 2-(2-methyl-6-(3-(1-methyl-1H-benzo[d]imidazol-2-yl)azetidin-1-yl)pyrimidin-4-yl)thiazole], the Ki is reported as 2.2 nM.
Work on `CCCc1nc(C)nn1-c1cc(N2CC(c3nc4ccccc4n3C)C2)nc(C)n1` [Example 38, 1-methyl-2-(1-(2-methyl-6-(3-methyl-5-propyl-1H-1,2,4-triazol-1-yl)pyrimidin-4-yl)azetidin-3-yl)-1H-benzo[d]imidazole] yielded a Ki of 0.41 nM.
With `Cc1nc(N2CC(c3nc4ccccc4n3C)C2)cc(-n2nc(C)nc2-c2ccccc2F)n1` [Example 51, 2-(1-(6-(5-(2-fluorophenyl)-3-methyl-1H-1,2,4-triazol-1-yl)-2-methylpyrimidin-4-yl)azetidin-3-yl)-1-methyl-1H-benzo[d]imidazole] the Ki was 1.2 nM.
For `COc1nc(C)ccc1-c1cc(N2CC(c3nc4ccccc4n3C)C2)nc(C)n1` [Example 84, 2-(1-(6-(2-methoxy-6-methylpyridin-3-yl)-2-methylpyrimidin-4-yl)azetidin-3-yl)-1-methyl-1H-benzo[d]imidazole], the Ki was 27 nM.
For `Cc1nc(-c2ccncc2)cc(N2CC(c3nc4ccccc4n3C)C2)n1` [Example 86, 1-methyl-2-(1-(2-methyl-6-(pyridin-4-yl)pyrimidin-4-yl)azetidin-3-yl)-1H-benzo[d]imidazole], the Ki was 46 nM.
`Cc1cn(-c2cc(N3CC(c4nc5ccccc5n4C)C3)nc(C)n2)nn1` [Example 29, 1-methyl-2-(1-(2-methyl-6-(4-methyl-1H-1,2,3-triazol-1-yl)pyrimidin-4-yl)azetidin-3-yl)-1H-benzo[d]imidazole] was tested, and the Ki was 3.1 nM.
Work on `CCc1cnn(-c2cc(N3CC(c4nc5ccccc5n4C)C3)nc(C)n2)c1` [Example 15, 2-(1-(6-(4-ethyl-1H-pyrazol-1-yl)-2-methylpyrimidin-4-yl)azetidin-3-yl)-1-methyl-1H-benzo[d]imidazole] yielded a Ki of 3.4 nM.
With `Cc1nc(N2CC(c3nc4ccccc4n3C)C2)cc(-n2ccc(C3CC3)n2)n1` [Example 13, 2-(1-(6-(3-cyclopropyl-1H-pyrazol-1-yl)-2-methylpyrimidin-4-yl)azetidin-3-yl)-1-methyl-1H-benzo[d]imidazole] the Ki was 0.74 nM.
Work on `Cc1nc(N2CC(c3nc4ccccc4n3C)C2)cc(-n2nc(C)nc2C[C@H](C)O)n1` [Example 40, (S)-1-(3-methyl-1-(2-methyl-6-(3-(1-methyl-1H-benzo[d]imidazol-2-yl)azetidin-1-yl)pyrimidin-4-yl)-1H-1,2,4-triazol-5-yl)propan-2-ol] yielded a Ki of 2 nM.
In the case of `Cc1nc(-c2cccc(C(F)(F)F)n2)cc(N2CC(c3nc4ccccc4n3C)C2)n1` [Example 87, 1-methyl-2-(1-(2-methyl-6-(6-(trifluoromethyl)pyridin-2-yl)pyrimidin-4-yl)azetidin-3-yl)-1H-benzo[d]imidazole], the Ki is reported as 1.3 nM.
`Cc1nc(-c2ncco2)cc(N2CC(c3nc4ccccc4n3C)C2)n1` [Example 104, 2-(2-methyl-6-(3-(1-methyl-1H-benzo[d]imidazol-2-yl)azetidin-1-yl)pyrimidin-4-yl)oxazole] gave a Ki of 20 nM.
With `Cc1cnn(-c2cc(N3CC(c4nc5ccccc5n4C)C3)nc(C3CC3)n2)n1` [Example 33, 2-(1-(2-cyclopropyl-6-(4-methyl-2H-1,2,3-triazol-2-yl)pyrimidin-4-yl)azetidin-3-yl)-1-methyl-1H-benzo[d]imidazole] the Ki was 0.54 nM.
With `Cc1nc(C)n(-c2cc(N3CC(c4nc5ccccc5n4C)C3)nc(CC#N)n2)n1` [Example 25, 2-(4-(3,5-dimethyl-1H-1,2,4-triazol-1-yl)-6-(3-(1-methyl-1H-benzo[d]imidazol-2-yl)azetidin-1-yl)pyrimidin-2-yl)acetonitrile] the Ki was 1.3 nM.
`Cc1nc(N2CC(c3nc4ccccc4n3C)C2)cc(-n2nc(C)nc2C[C@@H](C)O)n1` [Example 41, (R)-1-(3-methyl-1-(2-methyl-6-(3-(1-methyl-1H-benzo[d]imidazol-2-yl)azetidin-1-yl)pyrimidin-4-yl)-1H-1,2,4-triazol-5-yl)propan-2-ol] gave a Ki of 1 nM.
With `Cc1nc(N2CC(c3nc4ccccc4n3C)C2)cc(-n2nc(C)nc2-c2ccccc2)n1` [Example 49, 1-methyl-2-(1-(2-methyl-6-(3-methyl-5-phenyl-1H-1,2,4-triazol-1-yl)pyrimidin-4-yl)azetidin-3-yl)-1H-benzo[d]imidazole] the Ki was 6.8 nM.
`Cc1nc(-c2ccccc2O)cc(N2CC(c3nc4ccccc4n3C)C2)n1` [Example 92, 2-(2-methyl-6-(3-(1-methyl-1H-benzo[d]imidazol-2-yl)azetidin-1-yl)pyrimidin-4-yl)phenol] showed a Ki of 30 nM.
In the case of `Cc1nc(N2CC(c3nc4ccc(F)cc4[nH]3)C2)cc(-n2nc(C)nc2C)n1` [Example 109, 2-(1-(6-(3,5-dimethyl-1H-1,2,4-triazol-1-yl)-2-methylpyrimidin-4-yl)azetidin-3-yl)-6-fluoro-1H-benzo[d]imidazole], the Ki is reported as 8 nM.
Work on `Cc1nc(N2CC(c3nc4ccccc4n3CCF)C2)cc(-n2nc(C)nc2C)n1` [Example 116, 2-(1-(6-(3,5-dimethyl-1H-1,2,4-triazol-1-yl)-2-methylpyrimidin-4-yl)azetidin-3-yl)-1-(2-fluoroethyl)-1H-benzo[d]imidazole] yielded a Ki of 6.2 nM.
With `Cc1nc(C)n(-c2cc(N3CC(c4nc5ccccc5n4C)C3)nc(OC(C)C)n2)n1` [Example 70, 2-{1-[6-(3,5-dimethyl-1H-1,2,4-triazol-1-yl)-2-isopropoxypyimidin-4-yl]azetidin-3-yl}-1-methyl-1H-benzimidazole] the Ki was 0.38 nM.
Compound `Cc1nc(-c2cccnc2C)cc(N2CC(c3nc4ccccc4n3C)C2)n1` [Example 80, 1-Methyl-2-(1-(2-methyl-6-(2-methylpyridin-3-yl)pyrimidin-4-yl)azetidin-3-yl)-1H-benzo[d]imidazole] has a Ki greater than 100 nM.
Compound `Cc1nc(C)n(-c2cc(N3CC(c4nc5ccccc5n4C)C3)nc(C(F)(F)F)n2)n1` [Example 60, 2-{1-[6-(3,5-dimethyl-1H-1,2,4-triazol-1-yl)-2-(trifluoromethyl)pyrimidin-4-yl]azetidin-3-yl}-1-methyl-1H-benzimidazole] has a Ki of 1.1 nM.
`COc1nc(N2CC(c3nc4ccccc4n3C)C2)cc(-n2nc(C)nc2C)n1` [Example 62, 2-{1-[6-(3,5-dimethyl-1H-1,2,4-triazol-1-yl)-2-methoxypyrimidin-4-yl]azetidin-3-yl}-1-methyl-1H-benzimidazole] gave a Ki of 0.76 nM.

From US9365562B2, “1,3 substituted azetidine PDE10 inhibitors” (Merck Sharp & Dohme Corp., priority 2011, dated 2016)
